Source: PubChem BioAssay AID1259407 (Chemical Carcinogenesis Research Information System (CCRIS), 2018)
Activity calls are given as the source filed them. The rule behind the calls is not given here.

Test system: CCRIS mutagenicity, Ames/micronucleus/aberration tests
Assay: CCRIS mutagenicity studies

Measured: mutagenic call

COC(=O)c1ccc(C(=O)OC)cc1
inactive: End Point: IN VITRO CHROMOSOMAL ABERRATIONS, Test System: CHO-LB CELLS, Metabolic Activation: NONE inactive; negative | End Point: IN VITRO CHROMOSOMAL ABERRATIONS, Test System: CHO-LB CELLS, Metabolic Activation: RAT, LIVER, S-9, AROCLOR 1254 inactive; negative | Test System: AMES SALMONELLA TYPHIMURIUM, Strain/Indicator: TA98, Metabolic Activation: HAMSTER, LIVER, S-9, AROCLOR 1254 (10%), Method: PREINCUBATION inactive; negative | Test System: AMES SALMONELLA TYPHIMURIUM, Strain/Indicator: TA98, Metabolic Activation: NONE, Method: PREINCUBATION inactive; negative | Test System: AMES SALMONELLA TYPHIMURIUM, Strain/Indicator: TA98, Metabolic Activation: NONE, Method: STANDARD PLATE inactive; negative | Test System: AMES SALMONELLA TYPHIMURIUM, Strain/Indicator: TA98, Metabolic Activation: RAT LIVER S-9, AROCLOR 1254, Method: STANDARD PLATE inactive; negative | Test System: AMES SALMONELLA TYPHIMURIUM, Strain/Indicator: TA98, Metabolic Activation: RAT LIVER S-9, PHENOBARBITAL AND BETA-NAPHTHOFLAVONE, Method: PREINCUBATION inactive; negative | Test System: AMES SALMONELLA TYPHIMURIUM, Strain/Indicator: TA98, Metabolic Activation: RAT, LIVER, S-9, AROCLOR 1254 (10%), Method: PREINCUBATION inactive; negative | Test System: AMES SALMONELLA TYPHIMURIUM, Strain/Indicator: TA98, Metabolic Activation: RAT, LIVER, S-9, AROCLOR 1254, Method: STANDARD PLATE inactive; negative | Test System: AMES SALMONELLA TYPHIMURIUM, Strain/Indicator: TA98, Metabolic Activation: S-9, Method: STANDARD PLATE inactive; negative | Test System: AMES SALMONELLA TYPHIMURIUM, Strain/Indicator: TA100, Metabolic Activation: HAMSTER, LIVER, S-9, AROCLOR 1254 (10%), Method: PREINCUBATION inactive; negative | Test System: AMES SALMONELLA TYPHIMURIUM, Strain/Indicator: TA100, Metabolic Activation: NONE, Method: PREINCUBATION inactive; negative | Test System: AMES SALMONELLA TYPHIMURIUM, Strain/Indicator: TA100, Metabolic Activation: NONE, Method: STANDARD PLATE inactive; negative | Test System: AMES SALMONELLA TYPHIMURIUM, Strain/Indicator: TA100, Metabolic Activation: RAT LIVER S-9, AROCLOR 1254, Method: STANDARD PLATE inactive; negative | Test System: AMES SALMONELLA TYPHIMURIUM, Strain/Indicator: TA100, Metabolic Activation: RAT LIVER S-9, PHENOBARBITAL AND BETA-NAPHTHOFLAVONE, Method: PREINCUBATION inactive; negative | Test System: AMES SALMONELLA TYPHIMURIUM, Strain/Indicator: TA100, Metabolic Activation: RAT, LIVER, S-9, AROCLOR 1254 (10%), Method: PREINCUBATION inactive; negative | Test System: AMES SALMONELLA TYPHIMURIUM, Strain/Indicator: TA100, Metabolic Activation: RAT, LIVER, S-9, AROCLOR 1254, Method: STANDARD PLATE inactive; negative | Test System: AMES SALMONELLA TYPHIMURIUM, Strain/Indicator: TA100, Metabolic Activation: S-9, Method: STANDARD PLATE inactive; negative | Test System: AMES SALMONELLA TYPHIMURIUM, Strain/Indicator: TA102, Metabolic Activation: NONE, Method: STANDARD PLATE inactive; negative | Test System: AMES SALMONELLA TYPHIMURIUM, Strain/Indicator: TA102, Metabolic Activation: S-9, Method: STANDARD PLATE inactive; negative | Test System: AMES SALMONELLA TYPHIMURIUM, Strain/Indicator: TA1535, Metabolic Activation: HAMSTER, LIVER, S-9, AROCLOR 1254 (10%), Method: PREINCUBATION inactive; negative | Test System: AMES SALMONELLA TYPHIMURIUM, Strain/Indicator: TA1535, Metabolic Activation: NONE, Method: PREINCUBATION inactive; negative | Test System: AMES SALMONELLA TYPHIMURIUM, Strain/Indicator: TA1535, Metabolic Activation: NONE, Method: STANDARD PLATE inactive; negative | Test System: AMES SALMONELLA TYPHIMURIUM, Strain/Indicator: TA1535, Metabolic Activation: RAT LIVER S-9, AROCLOR 1254, Method: STANDARD PLATE inactive; negative | Test System: AMES SALMONELLA TYPHIMURIUM, Strain/Indicator: TA1535, Metabolic Activation: RAT LIVER S-9, PHENOBARBITAL AND BETA-NAPHTHOFLAVONE, Method: PREINCUBATION inactive; negative | Test System: AMES SALMONELLA TYPHIMURIUM, Strain/Indicator: TA1535, Metabolic Activation: RAT, LIVER, S-9, AROCLOR 1254 (10%), Method: PREINCUBATION inactive; negative | Test System: AMES SALMONELLA TYPHIMURIUM, Strain/Indicator: TA1535, Metabolic Activation: RAT, LIVER, S-9, AROCLOR 1254, Method: STANDARD PLATE inactive; negative | Test System: AMES SALMONELLA TYPHIMURIUM, Strain/Indicator: TA1535, Metabolic Activation: S-9, Method: STANDARD PLATE inactive; negative | Test System: AMES SALMONELLA TYPHIMURIUM, Strain/Indicator: TA1537, Metabolic Activation: HAMSTER, LIVER, S-9, AROCLOR 1254 (10%), Method: PREINCUBATION inactive; negative | Test System: AMES SALMONELLA TYPHIMURIUM, Strain/Indicator: TA1537, Metabolic Activation: NONE, Method: PREINCUBATION inactive; negative | Test System: AMES SALMONELLA TYPHIMURIUM, Strain/Indicator: TA1537, Metabolic Activation: NONE, Method: STANDARD PLATE inactive; negative | Test System: AMES SALMONELLA TYPHIMURIUM, Strain/Indicator: TA1537, Metabolic Activation: RAT LIVER S-9, AROCLOR 1254, Method: STANDARD PLATE inactive; negative | Test System: AMES SALMONELLA TYPHIMURIUM, Strain/Indicator: TA1537, Metabolic Activation: RAT LIVER S-9, PHENOBARBITAL AND BETA-NAPHTHOFLAVONE, Method: PREINCUBATION inactive; negative | Test System: AMES SALMONELLA TYPHIMURIUM, Strain/Indicator: TA1537, Metabolic Activation: RAT, LIVER, S-9, AROCLOR 1254 (10%), Method: PREINCUBATION inactive; negative | Test System: AMES SALMONELLA TYPHIMURIUM, Strain/Indicator: TA1537, Metabolic Activation: RAT, LIVER, S-9, AROCLOR 1254, Method: STANDARD PLATE inactive; negative | Test System: AMES SALMONELLA TYPHIMURIUM, Strain/Indicator: TA1537, Metabolic Activation: S-9, Method: STANDARD PLATE inactive; negative | Test System: AMES SALMONELLA TYPHIMURIUM, Strain/Indicator: TA1538, Metabolic Activation: NONE, Method: PREINCUBATION inactive; negative | Test System: AMES SALMONELLA TYPHIMURIUM, Strain/Indicator: TA1538, Metabolic Activation: NONE, Method: STANDARD PLATE inactive; negative | Test System: AMES SALMONELLA TYPHIMURIUM, Strain/Indicator: TA1538, Metabolic Activation: RAT LIVER S-9, AROCLOR 1254, Method: STANDARD PLATE inactive; negative | Test System: AMES SALMONELLA TYPHIMURIUM, Strain/Indicator: TA1538, Metabolic Activation: RAT LIVER S-9, PHENOBARBITAL AND BETA-NAPHTHOFLAVONE, Method: PREINCUBATION inactive; negative | Test System: AMES SALMONELLA TYPHIMURIUM, Strain/Indicator: TA1538, Metabolic Activation: RAT, LIVER, S-9, AROCLOR 1254, Method: STANDARD PLATE inactive; negative | Test System: AMES SALMONELLA TYPHIMURIUM, Strain/Indicator: TA1538, Metabolic Activation: S-9, Method: STANDARD PLATE inactive; negative | Test System: E.COLI, Strain/Indicator: WP2UVRA, Metabolic Activation: NONE, Method: PREINCUBATION inactive; negative | Test System: E.COLI, Strain/Indicator: WP2UVRA, Metabolic Activation: RAT LIVER S-9, PHENOBARBITAL AND BETA-NAPHTHOFLAVONE, Method: PREINCUBATION inactive; negative | Test System: UDS HUMAN HELA CELLS, Strain/Indicator: THYMIDINE INCORPORATION, Metabolic Activation: NONE, Method: LIQUID SCINTILLATION COUNTING inactive; negative
